Experimental data taken from patent US20230117034A1, “PYRAZOLOTRIAZINES” (Bayer Aktiengesellschaft, priority 2019, published 2023).

How the values were obtained:
[1] = system: BRCA1 mRNA expression in MDA-MB-231 cells; test: qRT-PCR assay: BRCA1 mRNA expression in MDA-MB-231; type: cell-based, human; details: Homo sapiens, MDA-MB-231, Inhibition of BRCA1 mRNA expression in MDA-MB-231 cells; median; read-out: RTqPCR-MDA-MB-231, IC50, BRCA1 (median)
How it was run: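 Human breast cancer cells, 200,000/well, were treated with test agents for 24 h without interruption after a 24 h settling period. Gene expression came from qPCR on cDNA made from 600 ng RNA, relative to GAPDH.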

[2] = biological target: T1, CDK9/CycT1 (Homo sapiens, UniProt P50750); test: CDK9/CycT1 high ATP kinase assay (TR-FRET, 2 mM ATP); type: biochemical; details: 2 mM ATP (high ATP); median; read-out: CDK9/CyclinT1, 2 mM ATP (high ATP), IC50 (median)
T1 construct: Recombinant full-length His-tagged human CDK9 and CycT1; purchased Life Technologies PV4131; host or cells: insect cells
How it was run: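 Full-length His-tagged human CDK9/CycT1 (insect cell, ~0.5 μg/mL) preincubated 15 min at 22 °C with compound in Tris pH 8.0, MgCl2, DTT buffer before reaction with biotinylated peptide substrate at high ATP (2 mM).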

[3] = system: CAL-120, human breast adenocarcinoma cells; test: Proliferation assay CAL-120 (crystal violet, 4 days); type: cell-based; details: Homo sapiens, CAL-120, 96 h, CAL-120 cells, median, read-out: Prolif-CAL-120, IC50-[mol/l] (median)
How it was run: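 Crystal violet proliferation read-out after 4 days of compound exposure (0.01-10 µmol/L; solvent 0.1% DMSO). Extinction at 595 nm, set between zero-point (0%) and vehicle (100%), fitted with 4 parameters to give IC50.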

T1 sequence (P50750 whole entry): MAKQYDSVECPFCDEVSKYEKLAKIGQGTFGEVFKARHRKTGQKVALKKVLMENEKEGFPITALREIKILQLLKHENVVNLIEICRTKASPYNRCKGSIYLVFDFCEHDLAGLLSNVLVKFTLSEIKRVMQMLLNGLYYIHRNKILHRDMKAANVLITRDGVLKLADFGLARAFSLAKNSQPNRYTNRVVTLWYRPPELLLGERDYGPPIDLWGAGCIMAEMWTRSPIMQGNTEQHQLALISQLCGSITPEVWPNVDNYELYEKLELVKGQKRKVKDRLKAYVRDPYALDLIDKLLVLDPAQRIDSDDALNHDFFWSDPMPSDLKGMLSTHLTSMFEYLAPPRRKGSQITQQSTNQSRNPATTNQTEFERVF
T1 sequence (O60563 whole entry partner): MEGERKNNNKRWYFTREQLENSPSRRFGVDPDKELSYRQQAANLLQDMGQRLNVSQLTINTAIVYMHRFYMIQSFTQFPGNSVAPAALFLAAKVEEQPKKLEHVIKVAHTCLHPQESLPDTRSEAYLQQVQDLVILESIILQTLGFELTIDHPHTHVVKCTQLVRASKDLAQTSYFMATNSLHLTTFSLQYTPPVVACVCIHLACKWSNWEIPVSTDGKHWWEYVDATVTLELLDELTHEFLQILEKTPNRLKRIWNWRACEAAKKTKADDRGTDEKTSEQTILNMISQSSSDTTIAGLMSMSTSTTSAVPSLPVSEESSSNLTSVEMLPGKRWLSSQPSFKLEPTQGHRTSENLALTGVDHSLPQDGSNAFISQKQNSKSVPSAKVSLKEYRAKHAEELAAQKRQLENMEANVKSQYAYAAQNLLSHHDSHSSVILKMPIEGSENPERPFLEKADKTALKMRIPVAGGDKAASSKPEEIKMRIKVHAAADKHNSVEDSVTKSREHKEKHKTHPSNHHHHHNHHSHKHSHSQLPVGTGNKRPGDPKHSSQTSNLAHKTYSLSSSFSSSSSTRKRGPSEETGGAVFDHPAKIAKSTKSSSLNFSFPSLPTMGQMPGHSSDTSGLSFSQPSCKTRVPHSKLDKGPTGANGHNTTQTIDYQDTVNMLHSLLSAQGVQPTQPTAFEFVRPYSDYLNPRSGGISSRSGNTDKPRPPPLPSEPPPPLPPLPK

Row | Compound | IC50 [1] | IC50 [2] | IC50 [3]
1 | Fc1cccc2[nH]c(CNc3nc(N4CCOCC4)nc4c(CC(F)(F)F)cnn34)nc12 [Example 303, N-[(4-fluoro-1H-benzimidazol-2-yl)methyl]-2-(morpholin-4-yl)-8-(2,2,2-trifluoroethyl)pyrazolo[1,5-a][1,3,5]triazin-4-amine] | 0.00479 µM | > 20 µM | 0.0079 µM
2 | Brc1cnn2c(NCc3nc4c([nH]3)CCCC4)nc(N3CCOCC3)nc12 [Example 21, 8-bromo-2-(morpholin-4-yl)-N-[(4,5,6,7-tetrahydro-1H-benzimidazol-2-yl)methyl]pyrazolo[1,5-a][1,3,5]triazin-4-amine] | 0.0318 µM | > 20 µM | 0.161 µM
3 | Cc1ccnc2[nH]c(CNc3nc(N4CCOCC4)nc4c(Br)cnn34)nc12 [Example 20, 8-bromo-N-[(7-methyl-3H-imidazo[4,5-b]pyridin-2-yl)methyl]-2-(morpholin-4-yl)pyrazolo[1,5-a][1,3,5]triazin-4-amine] | 0.00681 µM | 9.22 µM | 0.0142 µM
4 | CCNC1CCN(c2nc(NCc3nc4ccccc4[nH]3)n3ncc(Br)c3n2)CC1 [Example 300] | 0.0126 µM | > 20 µM | 0.0162 µM
5 | NC12CC1CN(c1nc(NCc3nc4ccccc4[nH]3)n3ncc(Br)c3n1)C2 (stereo not drawn) [Example 258, 2-(1-amino-3-azabicyclo[3.1.0]hexan-3-yl)-N-(1H-benzimidazol-2-ylmethyl)-8-bromo-pyrazolo[1,5-a][1,3,5]triazin-4-amine] | 0.0121 µM | > 20 µM | 0.0279 µM
6 | CC1(N)CCN(c2nc(NCc3nc4ccccc4[nH]3)n3ncc(Br)c3n2)CC1 [Example 290, 2-(4-amino-4-methylpiperidin-1-yl)-N-[(1H-benzimidazol-2-yl)methyl]-8-bromopyrazolo[1,5-a][1,3,5]triazin-4-amine] | 0.0176 µM | > 20 µM | 0.0203 µM
7 | Fc1ccc2[nH]c(CNc3nc(N4CCOCC4)nc4c(CC(F)(F)F)cnn34)nc2c1F [Example 268, N-[(4,5-difluoro-1H-benzimidazol-2-yl)methyl]-2-(morpholin-4-yl)-8-(2,2,2-trifluoroethyl)pyrazolo[1,5-a][1,3,5]triazin-4-amine] | 0.00323 µM | > 20 µM | 0.00559 µM
8 | c1ccc2[nH]c(CNc3nc(N4C[C@@H]5CCCN[C@@H]5C4)nc4c(C5CC5)cnn34)nc2c1 [Example 249, N-[(1H-benzimidazol-2-yl)methyl]-8-cyclopropyl-2-[(4aS,7aS)-octahydro-6H-pyrrolo[3,4-b]pyridin-6-yl]pyrazolo[1,5-a][1,3,5]triazin-4-amine] | 0.00569 µM | > 20 µM | 0.00428 µM
9 | CN1CCN(c2nc(NCc3nc4ccccc4[nH]3)n3ncc(C(F)(F)F)c3n2)CC1 [Example 297, N-[(1H-benzimidazol-2-yl)methyl]-2-(4-methylpiperazin-1-yl)-8-(trifluoromethyl)pyrazolo[1,5-a][1,3,5]triazin-4-amine] | 0.0515 µM | > 20 µM | 0.0223 µM
10 | Fc1ccc2[nH]c(CNc3nc(N4CCOCC4)nc4c([C@@H]5CC5(F)F)cnn34)nc2c1 (single isomer, unassigned) [Example 315, 8-[(1R or S)-2,2-difluorocyclopropyl]-N-[(5-fluoro-1H-benzimidazol-2-yl)methyl]-2-(morpholin-4-yl)pyrazolo[1,5-a][1,3,5]triazin-4-amine] | 0.0753 µM | > 20 µM | 0.0384 µM
11 | CN1CCN(c2nc(NCc3nc4cc(Cl)ccc4[nH]3)n3ncc(C(F)(F)F)c3n2)CC1 [Example 298, N-[(5-chloro-1H-benzimidazol-2-yl)methyl]-2-(4-methylpiperazin-1-yl)-8-(trifluoromethyl)pyrazolo[1,5-a][1,3,5]triazin-4-amine] | 0.00412 µM | > 20 µM | 0.00405 µM
12 | COc1cccc2[nH]c(CNc3nc(N4CCOCC4)nc4c(CC(F)(F)F)cnn34)nc12 [Example 277, N-[(4-methoxy-1H-benzimidazol-2-yl)methyl]-2-(morpholin-4-yl)-8-(2,2,2-trifluoroethyl)pyrazolo[1,5-a][1,3,5]triazin-4-amine] | 0.00542 µM | > 20 µM | 0.0309 µM
13 | CNC1CCN(c2nc(NCc3nc4ccccc4[nH]3)n3ncc(Br)c3n2)CC1 [Example 272, N-[(1H-benzimidazol-2-yl)methyl]-8-bromo-2-[4-(methylamino)piperidin-1-yl]pyrazolo[1,5-a][1,3,5]triazin-4-amine] | 0.00791 µM | > 20 µM | 0.0224 µM
14 | Fc1cccc2[nH]c(CNc3nc(N4C[C@H]5CC[C@@H](C4)N5)nc4c(C5CC5)cnn34)nc12 [Example 296, 8-cyclopropyl-2-[(1R,5S)-3,8-diazabicyclo[3.2.1]octan-3-yl]-N-[(4-fluoro-1H-benzimidazol-2-yl)methyl]pyrazolo[1,5-a][1,3,5]triazin-4-amine] | 0.00127 µM | > 20 µM | 0.00152 µM
15 | FC(F)(F)Cc1cnn2c(NCc3nc4cc(Cl)ccc4[nH]3)nc(N3CCOCC3)nc12 [Example 299, N-[(5-chloro-1H-benzimidazol-2-yl)methyl]-2-(morpholin-4-yl)-8-(2,2,2-trifluoroethyl)pyrazolo[1,5-a][1,3,5]triazin-4-amine] | 0.00886 µM | > 20 µM | 0.00471 µM
16 | CN(CC1CC1)c1nc(NCc2nc3ccccc3[nH]2)n2ncc(Br)c2n1 [Example 287, N^4-[(1H-benzimidazol-2-yl)methyl]-8-bromo-N^2-(cyclopropylmethyl)-N^2-methylpyrazolo[1,5-a][1,3,5]triazine-2,4-diamine] | 0.0208 µM | > 20 µM | 0.0332 µM
17 | NC1CCN(c2nc(NCc3nc4ccccc4[nH]3)n3ncc(Br)c3n2)CC1 [Example 256, 2-(4-aminopiperidin-1-yl)-N-[(1H-benzimidazol-2-yl)methyl]-8-bromopyrazolo[1,5-a][1,3,5]triazin-4-amine] | 0.00646 µM | > 20 µM | 0.00997 µM
18 | CN(CC(C)(C)O)c1nc(NCc2nc3c(F)cccc3[nH]2)n2ncc(C3CC3)c2n1 [Example 295, 1-[(8-cyclopropyl-4-{[(4-fluoro-1H-benzimidazol-2-yl)methyl]amino}pyrazolo[1,5-a][1,3,5]triazin-2-yl)(methyl)amino]-2-methylpropan-2-ol] | 0.00481 µM | 9.27 µM | 0.00725 µM
19 | Brc1cnn2c(NCc3nc4ccccc4[nH]3)nc(N3C[C@H]4CC[C@@H]3CN4)nc12 (single isomer, unassigned) [Example 316, N-[(1H-benzimidazol-2-yl)methyl]-8-bromo-2-{[1R or S-(1R*4R*)]-2,5-diazabicyclo[2.2.2]octan-2-yl}pyrazolo[1,5-a][1,3,5]triazin-4-amine] | 0.0124 µM | 12.9 µM | 0.00716 µM
20 | N[C@@H]1[C@@H]2C[C@H]1CN(c1nc(NCc3nc4ccccc4[nH]3)n3ncc(Br)c3n1)C2 [Example 289, 2-[(1R,5S,6s)-6-amino-3-azabicyclo[3.1.1]heptan-3-yl]-N-[(1H-benzimidazol-2-yl)methyl]-8-bromopyrazolo[1,5-a][1,3,5]triazin-4-amine] | 0.00291 µM | > 20 µM | 0.00308 µM
21 | Brc1cnn2c(NCc3nc4ccccc4[nH]3)nc(N3CC4CCNC4C3)nc12 (stereo not drawn) [Example 271, 2-(2,3,3a,4,6,6a-hexahydro-1H-pyrrolo[2,3-c]pyrrol-5-yl)-N-(1H-benzimidazol-2-ylmethyl)-8-bromo-pyrazolo[1,5-a][1,3,5]triazin-4-amine] | 0.0139 µM | > 20 µM | 0.0232 µM
22 | N[C@H]1CN(c2nc(NCc3nc4ccccc4[nH]3)n3ncc(Br)c3n2)CC12CC2 [Example 259, 2-[(7R)-7-amino-5-azaspiro[2.4]heptan-5-yl]-N-[(1H-benzimidazol-2-yl)methyl]-8-bromopyrazolo[1,5-a][1,3,5]triazin-4-amine] | 0.0114 µM | 7.37 µM | 0.0119 µM
23 | FC(F)(F)Cc1cnn2c(NCc3nc4cc(Cl)c(Cl)cc4[nH]3)nc(N3CCOCC3)nc12 [Example 302, N-[(5,6-dichloro-1H-benzimidazol-2-yl)methyl]-2-(morpholin-4-yl)-8-(2,2,2-trifluoroethyl)pyrazolo[1,5-a][1,3,5]triazin-4-amine] | 0.00906 µM | > 20 µM | 0.00898 µM
24 | Fc1ccc2[nH]c(CNc3nc(N4CCOCC4)nc4c(CC(F)(F)F)cnn34)nc2c1 [Example 308, N-[(5-fluoro-1H-benzimidazol-2-yl)methyl]-2-(morpholin-4-yl)-8-(2,2,2-trifluoroethyl)pyrazolo[1,5-a][1,3,5]triazin-4-amine] | 0.00546 µM | > 20 µM | 0.0102 µM
25 | Fc1ccc2[nH]c(CNc3nc(N4CC5CCC(C4)N5)nc4c(C(F)(F)F)cnn34)nc2c1F [Example 310, 2-(3,8-diazabicyclo[3.2.1]octan-3-yl)-N-[(4,5-difluoro-1H-benzimidazol-2-yl)methyl]-8-(trifluoromethyl)pyrazolo[1,5-a][1,3,5]triazin-4-amine] | 0.0351 µM | 8.49 µM | 0.00174 µM
